{"source": "paper PMC8318587", "about": "“Structure-guided microbial targeting of antistaphylococcal prodrugs” (eLife, 2021)", "key": {"[1]": {"test_system": "GloB", "design": "method as in Mikati et al., 2020", "details": "ref Mikati et al., 2020; cited from earlier work"}, "[2]": {"test_system": "S. aureus (JE2, NTML transposon mutants, Newman resistant isolates)", "assay": "POM-HEX half-maximal growth inhibitory concentration (IC50), microtiter broth dilution", "assay_type": "cell-based", "details": "Staphylococcus aureus", "method": "Half-maximal inhibitory concentration (IC50) determination was performed using microtiter broth dilution in clear 96-well plates ([European Committee for Antimicrobial Susceptibility Testing (EUCAST) of the ES of CM and ID (ESCMID), 2000]). Briefly, POM-HEX was added to 75 µL LB media at a final concentration of 20–50 µM POM-HEX and 0.5% DMSO, with POM-HEX concentrations varying according to resistant strain. Subsequently, POM-HEX was serially diluted in LB media containing 0.5% DMSO for a total of 10 dilutions. Two wells were left without drug, one used to define 100% growth, and the other used to control for media contamination and to define 0% growth. Seventy-five microliters of mid-log phase S. aureus diluted to 1 × 10^5 colony forming units/mL were subsequently added to the plate. Following inoculation, plates were incubated at 37°C with shaking, and OD600 measurements were taken every 20 min for a total of 16 hr. Half-maximal inhibitory concentrations (IC50) were determined by fitting the OD600 of each condition following 10 hr of growth to a nonlinear regression using GraphPad Prism software. Experiments were performed in triplicate with technical duplicates.\nGeneration of POM-HEX resistant strains was performed by plating log-phase S. aureus Newman on LB agar containing 3.33 μM POM-HEX and incubating at 37°C overnight. Surviving single colonies were grown overnight in LB media and frozen in 10% glycerol for long term storage. All assays were performed from fresh overnight inoculations from glycerol stocks."}, "[3]": {"test_system": "S. aureus Newman", "assay_type": "cell-based, Staphylococcus aureus", "details": "LB agar, 24 hr, mean ± SD", "method": "(§1) Antibiotic resistance frequency was determined on LB agar plates containing 4× and 10×, the minimum inhibitory concentrations of several antibiotics. MICs were determined for S. aureus Newman in liquid LB media. […] Briefly, S. aureus Newman was grown in LB media to late log-phase and centrifuged at 4000 × g for 15 min before resuspension at an OD600 nm of 30 (~1E11 CFU/mL) in LB media. One hundred microliter aliquots of concentrated S. aureus was plated in duplicate on selective and non-selective plates and incubated at 37°C. After 24 hr, mutation rates were calculated by counting the number of colonies present and dividing by the total number of colonies plated. Experiments were performed in triplicate."}, "[4]": {"test_system": "S. aureus Newman", "assay": "Minimum inhibitory concentration (MIC) in liquid LB media", "assay_type": "cell-based", "details": "Staphylococcus aureus, NEWMAN", "method": "as §1"}}, "note": "Where two headings read alike, the source gives them in different places.", "data": [{"smiles": "CC(C)(C)C(=O)OCOP(=O)(OCOC(=O)C(C)(C)C)C1CCCN(O)C1=O", "note": "(stereo not shown) [POM-HEX]", "values": [{"measurement": "Prodrug activation product with GloB, in words", "setting": "[1]", "result": "removes only one POM moiety"}, {"measurement": "IC50", "setting": "[2]; 10 h, read-out: POM-HEX IC50, S. aureus JE2 parental strain, OD600 at 10 hr", "result": 1540, "unit": "nM"}, {"measurement": "IC50", "setting": "[2]; read-out: POM-HEX IC50, transposon mutant NE64 (hemY, SAUSA300_1781)", "result": 1430, "unit": "nM"}, {"measurement": "IC50", "setting": "[2]; read-out: POM-HEX IC50, transposon mutant NE145 (uvrA, SAUSA300_0742)", "result": 1460, "unit": "nM"}, {"measurement": "IC50", "setting": "[2]; read-out: POM-HEX IC50, transposon mutant NE202 (SAUSA300_1902)", "result": 700, "unit": "nM"}, {"measurement": "IC50", "setting": "[2]; read-out: POM-HEX IC50, transposon mutant NE223 (truA, SAUSA300_2173)", "result": 1390, "unit": "nM"}, {"measurement": "IC50", "setting": "[2]; read-out: POM-HEX IC50, transposon mutant NE293 (SAUSA300_1285)", "result": 1410, "unit": "nM"}, {"measurement": "IC50", "setting": "[2]; read-out: POM-HEX IC50, transposon mutant NE355 (gbaA, SAUSA300_2515)", "result": 1730, "unit": "nM"}, {"measurement": "IC50", "setting": "[2]; read-out: POM-HEX IC50, transposon mutant NE364 (SAUSA300_0671)", "result": 1650, "unit": "nM"}, {"measurement": "IC50", "setting": "[2]; read-out: POM-HEX IC50, transposon mutant NE377 (GloB, SAUSA300_1505)", "result": 10600, "unit": "nM"}, {"measurement": "IC50", "setting": "[2]; read-out: POM-HEX IC50, transposon mutant NE386 (rot, SAUSA300_1708)", "result": 1400, "unit": "nM"}, {"measurement": "IC50", "setting": "[2]; read-out: POM-HEX IC50, transposon mutant NE478 (phnE, SAUSA300_0142)", "result": 1610, "unit": "nM"}, {"measurement": "IC50", "setting": "[2]; read-out: POM-HEX IC50, transposon mutant NE503 (estA, FrmB, SAUSA300_2564)", "result": 6280, "unit": "nM"}, {"measurement": "IC50", "setting": "[2]; read-out: POM-HEX IC50, transposon mutant NE520 (proC, SAUSA300_1452)", "result": 1470, "unit": "nM"}, {"measurement": "IC50", "setting": "[2]; read-out: POM-HEX IC50, transposon mutant NE532 (SAUSA300_2473)", "result": 1560, "unit": "nM"}, {"measurement": "IC50", "setting": "[2]; read-out: POM-HEX IC50, transposon mutant NE541 (SAUSA300_0201)", "result": 1600, "unit": "nM"}, {"measurement": "IC50", "setting": "[2]; read-out: POM-HEX IC50, transposon mutant NE621 (SAUSA300_0581)", "result": 1620, "unit": "nM"}, {"measurement": "IC50", "setting": "[2]; read-out: POM-HEX IC50, transposon mutant NE812 (SAUSA300_0299)", "result": 1640, "unit": "nM"}, {"measurement": "IC50", "setting": "[2]; read-out: POM-HEX IC50, transposon mutant NE929 (mtlF, SAUSA300_2105)", "result": 1700, "unit": "nM"}, {"measurement": "IC50", "setting": "[2]; read-out: POM-HEX IC50, transposon mutant NE937 (fruC, SAUSA300_1993)", "result": 1670, "unit": "nM"}, {"measurement": "IC50", "setting": "[2]; read-out: POM-HEX IC50, transposon mutant NE949 (hsdM2, SAUSA300_1752)", "result": 1730, "unit": "nM"}, {"measurement": "IC50", "setting": "[2]; read-out: POM-HEX IC50, transposon mutant NE1039 (psuG, SAUSA300_0312)", "result": 1730, "unit": "nM"}, {"measurement": "IC50", "setting": "[2]; read-out: POM-HEX IC50, transposon mutant NE1071 (capD, SAUSA300_0538)", "result": 1540, "unit": "nM"}, {"measurement": "IC50", "setting": "[2]; read-out: POM-HEX IC50, transposon mutant NE1118 (dapD, SAUSA300_1290)", "result": 1690, "unit": "nM"}, {"measurement": "IC50", "setting": "[2]; read-out: POM-HEX IC50, transposon mutant NE1127 (lpl4, SAUSA300_0414)", "result": 1720, "unit": "nM"}, {"measurement": "IC50", "setting": "[2]; read-out: POM-HEX IC50, transposon mutant NE1173 (SAUSA300_1792)", "result": 1840, "unit": "nM"}, {"measurement": "IC50", "setting": "[2]; read-out: POM-HEX IC50, transposon mutant NE1225 (SAUSA300_0421)", "result": 2150, "unit": "nM"}, {"measurement": "IC50", "setting": "[2]; read-out: POM-HEX IC50, transposon mutant NE1238 (SAUSA300_0214)", "result": 2080, "unit": "nM"}, {"measurement": "IC50", "setting": "[2]; read-out: POM-HEX IC50, transposon mutant NE1283 (tnp, SAUSA300_0028)", "result": 2100, "unit": "nM"}, {"measurement": "IC50", "setting": "[2]; read-out: POM-HEX IC50, transposon mutant NE1296 (saeS, SAUSA300_0690)", "result": 2070, "unit": "nM"}, {"measurement": "IC50", "setting": "[2]; read-out: POM-HEX IC50, transposon mutant NE1486 (phoP, SAUSA300_1639)", "result": 2180, "unit": "nM"}, {"measurement": "IC50", "setting": "[2]; read-out: POM-HEX IC50, transposon mutant NE1505 (SAUSA300_0840)", "result": 2200, "unit": "nM"}, {"measurement": "IC50", "setting": "[2]; read-out: POM-HEX IC50, transposon mutant NE1519 (accC, SAUSA300_1563)", "result": 1750, "unit": "nM"}, {"measurement": "IC50", "setting": "[2]; read-out: POM-HEX IC50, transposon mutant NE1547 (SAUSA300_2508)", "result": 1480, "unit": "nM"}, {"measurement": "IC50", "setting": "[2]; read-out: POM-HEX IC50, transposon mutant NE1610 (pdhD, SAUSA300_0996)", "result": 1230, "unit": "nM"}, {"measurement": "IC50", "setting": "[2]; read-out: POM-HEX IC50, transposon mutant NE1682 (hlgB, SAUSA300_2367)", "result": 1370, "unit": "nM"}, {"measurement": "IC50", "setting": "[2]; read-out: POM-HEX IC50, transposon mutant NE1723 (SAUSA300_0094)", "result": 1340, "unit": "nM"}, {"measurement": "Mutational frequency at 4× MIC", "setting": "[3]", "result": "5.96 ± 1.60 E-07"}, {"measurement": "Mutational frequency at 10× MIC", "setting": "[3]", "result": "2.92 ± 0.57 E-07"}, {"measurement": "MIC", "setting": "[4]", "result": 3.13, "unit": "µg/mL"}]}]}
